Experimental data published in article PMC11579541, “In vitro, in vivo, and in silico approaches for evaluating the preclinical DMPK profiles of ammoxetine, a novel chiral serotonin and norepinephrine reuptake inhibitor” (Frontiers in Pharmacology, 2024).
In brackets after ≈: the same amount, converted by molar mass.

Columns and labels:
MTT cytotoxicity assay = type: cell-based, canine; settings: dog, MDCK-MDR1 cells; 0–20 μg/mL, 3 h; read-out: cellular inhibition rate
Experimental: (§1) MDCK-MDR1 cells at passage 17 were cultured in DMEM supplemented with 10% FBS, 1% glutamine, 100 U/mL penicillin/streptomycin, 1% NEAA, and 1 mmol/L sodium pyruvate. The cells were incubated overnight at 37°C with 5% CO2 and a relative humidity of 90%. Once the cells reached approximately 80% confluence, they were treated with a 0.25% trypsin/EDTA solution to dissociate the cells. Subsequently, the cells were seeded at a density of 5 × 10^5 cells/cm^2 in Millicell-96 well plates (Millipore, Burlington, USA). Prior to conducting the experiments, the integrity of the cell monolayer was confirmed by measuring transepithelial electrical resistance (TEER) using a Millicell ERS® meter (Millipore, Burlington, USA). A TEER value greater than 400 Ω cm^2 was required to ensure the formation and preservation of tight junctions.
(§2) The ability of ammoxetine to inhibit the growth of MDCK-MDR1 cells was evaluated using the MTT assay. Ammoxetine was diluted with transport buffer [Hank’s balanced salt solution (HBSS) containing 6.0 g HEPES, pH 7.2–7.4] from a stock solution (2 mg/mL) dissolved in HBSS to create a series of standard concentrations: 1.28, 6.4, 32, 160, 800 ng/mL and 4, 20, 100, 500 μg/mL. Prior to the assay, the cell culture medium was aspirated and replaced with different standard concentrations of ammoxetine (100 μL/well, n = 6). The cells were then incubated at 37°C for 3 h. Following the incubation, 20 μL of MTT solution (5 mg/mL) was added to each well, and the incubation was continued for 4 h. Subsequently, the solution in each well was discarded, and 150 μL of dimethyl sulfoxide was added. After vortexing for 10 min, the absorbance was measured at 570 nm using a Varioskan® Flash multimode reader (Thermo Fisher Scientific, Waltham, USA). Blank control solutions, consisting of HBSS without ammoxetine, were also applied to the cells. The absorbance values were then used to calculate the relative growth rate (RGR, %) of cells using the formula RGR = ODammoxetine/ODblank × 100%, where ODammoxetine and ODblank represent the mean absorbance values of six parallel measurements in the ammoxetine and blank control solutions, respectively ([Ji et al., 2024]). The Prism 5 software (GraphPad Software, Inc., San Diego, USA) was used to determine the 50% toxic concentration (TC50) value of ammoxetine.

MDCK-MDR1 cells = test: MTT cytotoxicity assay; type: cell-based, canine
Experimental: as §1, §2

CYP 1A2 = molecular target: T1, CYP 1A2 (Homo sapiens, UniProt P05177); test: Phenotyping with recombinant human CYP 1A2; type: in vitro ADME; parameters: purchased BD (Woburn, USA); settings: 5 μmol/L, 25 pmol/mL CYP, 1 h
T1 sequence (P05177 1-516): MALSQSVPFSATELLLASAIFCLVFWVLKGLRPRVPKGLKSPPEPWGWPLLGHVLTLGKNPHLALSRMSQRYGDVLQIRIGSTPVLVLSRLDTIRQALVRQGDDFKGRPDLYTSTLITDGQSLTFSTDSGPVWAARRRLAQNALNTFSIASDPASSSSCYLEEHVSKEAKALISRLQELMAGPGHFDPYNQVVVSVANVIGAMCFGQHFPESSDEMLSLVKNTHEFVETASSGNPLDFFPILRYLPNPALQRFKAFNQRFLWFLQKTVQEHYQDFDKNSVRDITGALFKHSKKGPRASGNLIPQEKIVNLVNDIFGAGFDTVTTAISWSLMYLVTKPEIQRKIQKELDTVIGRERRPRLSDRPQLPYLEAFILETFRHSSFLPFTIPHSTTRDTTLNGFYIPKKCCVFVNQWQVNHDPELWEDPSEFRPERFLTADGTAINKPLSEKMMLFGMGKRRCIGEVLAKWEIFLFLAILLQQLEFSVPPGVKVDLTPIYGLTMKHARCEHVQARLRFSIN
Experimental: Ammoxetine (final concentration 5 μmol/L) was incubated with recombinant human CYP 3A4, CYP 1A2, CYP 2C9, CYP 2C19, and CYP 2D6 (final concentration 25 pmol/mL) in a 5 mmol/L K2HPO4 buffer at pH 7.4. The incubations were performed in quintuplicate. NADPH (final concentration 1 mmol/L) was added to initiate the incubation process. The mixture was then incubated at 37°C for 1 h. To stop the reaction, 200 μL of ice-cold acetonitrile/methanol (1:1, v/v) containing 500 ng/mL of L-phencynonate (IS) was added. The samples were vortexed for 2 min and centrifuged at 13,800×g and 4°C for 10 min. The supernatants obtained were analyzed using an LC-MS-MS method. To establish appropriate controls, zero-time controls and blank controls in the absence of NADPH were set up in parallel.

In the case of `CNCC[C@H](Oc1cccc2c1OCO2)c1cccs1` [ammoxetine], the inhibition at 3 h (MTT cytotoxicity assay) is reported as less than 10%, the “RGR (%)” value (MDCK-MDR1 cells; 0.16 μg/mL) is reported as 103.48±9.43% and the “RGR (%)” value (MDCK-MDR1 cells; 0.80 μg/mL) is reported as 102.55±18.09%. The “RGR (%)” value (MDCK-MDR1 cells; 4 μg/mL) was 103.59±20.82%, the “RGR (%)” value (MDCK-MDR1 cells; 20 μg/mL) was 89.16±12.89% and the “RGR (%)” value (MDCK-MDR1 cells; 100 μg/mL) was 55.53±7.87%. For the same compound, the “RGR (%)” value (MDCK-MDR1 cells; 500 μg/mL) was 24.49±2.36%, the “RGR (%)” value (MDCK-MDR1 cells; 1.28×e-3 μg/mL) was 113.13±22.65% and the “RGR (%)” value (MDCK-MDR1 cells; 3.20×e-2 μg/mL) was 103.57±14.18%. The “RGR (%)” value (MDCK-MDR1 cells; 6.40×e-3 μg/mL) was 114.88±14.68%, the TC50 (MDCK-MDR1 cells; 50% toxic concentration from ln concentration-RGR curve) was 79.76 ± 18.94 µg/mL (≈ 274 µM) and the Transformation ratio% (CYP 1A2) was 14.04±2.29%. For the same compound, the “residuary concentration of ammoxetine, Mean±SD” value (CYP 1A2) was 5.89±0.16.
